Where two headings read alike, the source gives them in different places.
How the values were obtained:
[1] = system: pre-miR-21; conditions: previously shown; cited from earlier work
[2] = system: pre-miR-21; experiment: cat-ELCCA for Dicer-mediated pre-miRNA maturation; assay type: biochemical; conditions: for hit in HTS for inhibition of Dicer-mediated pre-miR-21 maturation: primary and confirmation screens at 25 µM, CRCs from 3.3 to 120 µM

Compound: [H]/N=C(/N)N[C@H]1[C@H](O)[C@@H](O)[C@H](O[C@@H]2O[C@@H](C)[C@](O)(C=O)[C@H]2O[C@@H]2O[C@@H](CO)[C@H](O)[C@@H](O)[C@@H]2NC)[C@@H](N/C(N)=N\[H])[C@@H]1O [streptomycin]
- inhibition of Dicer-mediated pre-miR-21 maturation [1]: do not inhibit

Compound: CN(C)c1ccc(O)c2c1C[C@H]1C[C@H]3[C@H](N(C)C)C(O)=C(C(N)=O)C(=O)[C@@]3(O)C(O)=C1C2=O [minocycline]
- hit in HTS for inhibition of Dicer-mediated pre-miR-21 maturation [2]: emerged as hits

Compound: C=C1c2c(Cl)ccc(O)c2C(=O)C2=C(O)[C@]3(O)C(=O)C(C(N)=O)=C(O)[C@@H](N(C)C)[C@@H]3[C@@H](O)[C@H]12 [meclocycline]
- hit in HTS for inhibition of Dicer-mediated pre-miR-21 maturation [2]: emerged as hits

Compound: C=C1c2cccc(O)c2C(=O)C2=C(O)[C@]3(O)C(=O)C(C(N)=O)=C(O)[C@@H](N(C)C)[C@@H]3[C@@H](O)[C@H]12 [methacycline]
- hit in HTS for inhibition of Dicer-mediated pre-miR-21 maturation [2]: emerged as hits

Compound: NC[C@H]1O[C@H](O[C@H]2[C@H](O)[C@@H](O[C@H]3O[C@H](CO)[C@@H](O)[C@H](N)[C@H]3O)[C@H](N)C[C@@H]2N)[C@H](O)[C@@H](O)[C@@H]1O [kanamycin]
- inhibition of Dicer-mediated pre-miR-21 maturation ([2]; data not shown): do not inhibit

Source: paper PMC5797708 (SLAS discovery : advancing life sciences R & D, 2017)
